How the values were obtained:
[1] = tested on: A549, human lung cancer cells implanted in flanks; assay: tissue distribution in SCID mice bearing A549 tumors; type: in vivo; settings: for tissue distribution, blood / tissue distribution, bone / tissue distribution, brain / tissue distribution, heart / tissue distribution, kidney / tissue distribution, liver / tissue distribution, lung / tissue distribution, muscle / tissue distribution, pancreas / tissue distribution, spleen / tissue distribution, tumor: A549 tumor-bearing SCID mice, tail vein, ave
Experimental: (§1) For the in vitro amino acid uptake studies, all cells can be grown to monolayer confluency in T-175 culture flasks [Corning, Corning, N.Y.] (approx. 1×10^8 cells/flask) in Dulbecco's Modified Eagle's Medium (DMEM) [Sigma, St. Louis, Mo.] in a humidified incubator (37° C., 5% CO2/95% air). Media are supplemented with 10% fetal calf serum [Hyclone, Logan, Utah], and antibiotics (10,000 U/ml penicillin and 10 mg/ml streptomycin) (Sigma, St. Louis, Mo.). For tissue culture passage, monolayer cells are detached by gentle trypsinization, resuspended in complete media, and split 1:10 into new T-flasks. Cultures are passaged weekly, and fed fresh media every 2 to 3 days. To initiate tumor growth in SCID mice, 1×10^6 cells are injected s.c. bilaterally into the flanks (inguinal region) of the recipient animals using a 1 ml syringe with a 27 gauge needle. Ex vivo experiments can be performed with animals containing tumors weighing between 500 mg and 1 g, as estimated by caliper measurement (tumor weight=(π/6)*abc, where a, b and c are the tumor length, width and height, respectively).
(§2) Tissue distribution of the compounds is measured in SCID mice (average weight, 20-25 g) bearing human tumors as follows. The candidate radioligands (20 uCi in 0.4 ml 0.9% NaCl) are injected into the tail vein of tumor-bearing mice. […] Tissues (blood, heart, liver, lungs, kidneys, bone, thyroid, muscle, brain and tumor) are excised, rinsed in saline, and blotted dry. The tissues are weighed, placed into 12×75 mm glass vials, the radioactivity determined with a gamma counter, and the percent dose/gram calculated. Total activities of blood and muscle are calculated by assuming that they account for 7% and 40% of the total body mass, respectively.
(§3) Tables 3-7 show the results of the biodistribution studies with the separate enantiomers of anti-2-[^18F]FACPC and racemic anti-2-[^18F]FACBC as a comparison in SCiD mice implanted in their flanks with A549, human lung cancer cells and DU145, human prostate cancer cells.

[2] = tested on: DU145, human prostate cancer cells implanted in flanks; assay: tissue distribution in SCID mice bearing DU145 tumors; type: in vivo; settings: for tissue distribution, blood / tissue distribution, bone / tissue distribution, brain / tissue distribution, heart / tissue distribution, kidney / tissue distribution, liver / tissue distribution, lung / tissue distribution, muscle / tissue distribution, pancreas / tissue distribution, spleen / tissue distribution, tumor: DU145 tumor-bearing SCID mice, tail vein, ave
Experimental: as §1, §2, §3

[3] = A549 cells implanted subcutaneously in flanks of SCID mice
[4] = 15 min, listed as Anti-2-[^18F]FACPC Enantiomer 1
[5] = 60 min, listed as Anti-2-[^18F]FACPC Enantiomer 1

NC1(C(=O)O)CCC1[18F] (racemic) [racemic anti-2-[^18F]FACBC]
tissue distribution, blood ([1]; 15 min): 3.39 percent dose/gram | tissue distribution, bone ([1]; 15 min): 2.07 percent dose/gram | tissue distribution, brain ([1]; 15 min): 0.27 percent dose/gram | tissue distribution, heart ([1]; 15 min): 2.71 percent dose/gram | tissue distribution, kidney ([1]; 15 min): 10.12 percent dose/gram | tissue distribution, liver ([1]; 15 min): 3.15 percent dose/gram | tissue distribution, lung ([1]; 15 min): 4.23 percent dose/gram | tissue distribution, muscle ([1]; 15 min): 1.38 percent dose/gram | tissue distribution, pancreas ([1]; 15 min): 48.45 percent dose/gram | tissue distribution, spleen ([1]; 15 min): 7.91 percent dose/gram | tissue distribution, tumor ([1]; 15 min): 5.11 percent dose/gram | tissue distribution, blood ([1]; 30 min): 2.43 percent dose/gram | tissue distribution, bone ([1]; 30 min): 1.64 percent dose/gram | tissue distribution, brain ([1]; 30 min): 0.26 percent dose/gram | tissue distribution, heart ([1]; 30 min): 2.24 percent dose/gram | tissue distribution, kidney ([1]; 30 min): 5.48 percent dose/gram | tissue distribution, liver ([1]; 30 min): 2.70 percent dose/gram | tissue distribution, lung ([1]; 30 min): 3.03 percent dose/gram | tissue distribution, muscle ([1]; 30 min): 1.44 percent dose/gram | tissue distribution, pancreas ([1]; 30 min): 44.17 percent dose/gram | tissue distribution, spleen ([1]; 30 min): 5.03 percent dose/gram | tissue distribution, tumor ([1]; 30 min): 4.29 percent dose/gram | tissue distribution, blood ([1]; 60 min): 1.09 percent dose/gram | tissue distribution, bone ([1]; 60 min): 1.02 percent dose/gram | tissue distribution, brain ([1]; 60 min): 0.16 percent dose/gram | tissue distribution, heart ([1]; 60 min): 1.41 percent dose/gram | tissue distribution, kidney ([1]; 60 min): 2.25 percent dose/gram | tissue distribution, liver ([1]; 60 min): 1.47 percent dose/gram | tissue distribution, lung ([1]; 60 min): 1.40 percent dose/gram | tissue distribution, muscle ([1]; 60 min): 0.90 percent dose/gram | tissue distribution, pancreas ([1]; 60 min): 20.64 percent dose/gram | tissue distribution, spleen ([1]; 60 min): 2.86 percent dose/gram | tissue distribution, tumor ([1]; 60 min): 3.04 percent dose/gram | tissue distribution, blood ([1]; 120 min): 0.41 percent dose/gram | tissue distribution, bone ([1]; 120 min): 0.62 percent dose/gram | tissue distribution, brain ([1]; 120 min): 0.15 percent dose/gram | tissue distribution, heart ([1]; 120 min): 0.86 percent dose/gram | tissue distribution, kidney ([1]; 120 min): 1.03 percent dose/gram | tissue distribution, liver ([1]; 120 min): 0.59 percent dose/gram | tissue distribution, lung ([1]; 120 min): 0.56 percent dose/gram | tissue distribution, muscle ([1]; 120 min): 0.77 percent dose/gram | tissue distribution, pancreas ([1]; 120 min): 9.80 percent dose/gram | tissue distribution, spleen ([1]; 120 min): 1.48 percent dose/gram | tissue distribution, tumor ([1]; 120 min): 2.30 percent dose/gram | uptake of radioactivity in the tumors compared with muscle ([1]; A549 tumors, SCID mice, time points sampled post injection): greater than muscle | tissue distribution, blood ([2]; 15 min): 2.80 percent dose/gram | tissue distribution, bone ([2]; 15 min): 1.06 percent dose/gram | tissue distribution, brain ([2]; 15 min): 0.17 percent dose/gram | tissue distribution, heart ([2]; 15 min): 2.07 percent dose/gram | tissue distribution, kidney ([2]; 15 min): 6.82 percent dose/gram | tissue distribution, liver ([2]; 15 min): 2.32 percent dose/gram | tissue distribution, lung ([2]; 15 min): 3.35 percent dose/gram | tissue distribution, muscle ([2]; 15 min): 0.83 percent dose/gram | tissue distribution, pancreas ([2]; 15 min): 29.02 percent dose/gram | tissue distribution, spleen ([2]; 15 min): 4.38 percent dose/gram | tissue distribution, tumor ([2]; 15 min): 2.95 percent dose/gram | tissue distribution, blood ([2]; 30 min): 1.86 percent dose/gram | tissue distribution, bone ([2]; 30 min): 1.63 percent dose/gram | tissue distribution, brain ([2]; 30 min): 0.16 percent dose/gram | tissue distribution, heart ([2]; 30 min): 1.82 percent dose/gram | tissue distribution, kidney ([2]; 30 min): 4.47 percent dose/gram | tissue distribution, liver ([2]; 30 min): 2.09 percent dose/gram | tissue distribution, lung ([2]; 30 min): 2.32 percent dose/gram | tissue distribution, muscle ([2]; 30 min): 1.00 percent dose/gram | tissue distribution, pancreas ([2]; 30 min): 29.29 percent dose/gram | tissue distribution, spleen ([2]; 30 min): 4.74 percent dose/gram | tissue distribution, tumor ([2]; 30 min): 3.54 percent dose/gram | tissue distribution, blood ([2]; 60 min): 0.80 percent dose/gram | tissue distribution, bone ([2]; 60 min): 2.22 percent dose/gram | tissue distribution, brain ([2]; 60 min): 0.18 percent dose/gram | tissue distribution, heart ([2]; 60 min): 1.32 percent dose/gram | tissue distribution, kidney ([2]; 60 min): 1.82 percent dose/gram | tissue distribution, liver ([2]; 60 min): 1.23 percent dose/gram | tissue distribution, lung ([2]; 60 min): 1.18 percent dose/gram | tissue distribution, muscle ([2]; 60 min): 1.15 percent dose/gram | tissue distribution, pancreas ([2]; 60 min): 15.01 percent dose/gram | tissue distribution, spleen ([2]; 60 min): 2.85 percent dose/gram | tissue distribution, tumor ([2]; 60 min): 2.57 percent dose/gram | tissue distribution, blood ([2]; 120 min): 0.39 percent dose/gram | tissue distribution, bone ([2]; 120 min): 0.66 percent dose/gram | tissue distribution, brain ([2]; 120 min): 0.13 percent dose/gram | tissue distribution, heart ([2]; 120 min): 0.82 percent dose/gram | tissue distribution, kidney ([2]; 120 min): 0.78 percent dose/gram | tissue distribution, liver ([2]; 120 min): 0.43 percent dose/gram | tissue distribution, lung ([2]; 120 min): 0.46 percent dose/gram | tissue distribution, muscle ([2]; 120 min): 0.72 percent dose/gram | tissue distribution, pancreas ([2]; 120 min): 5.92 percent dose/gram | tissue distribution, spleen ([2]; 120 min): 0.87 percent dose/gram | tissue distribution, tumor ([2]; 120 min): 1.85 percent dose/gram | uptake of radioactivity in the tumors compared with muscle ([2]; DU145 tumors, SCID mice, time points sampled post injection): greater than muscle

N[C@]1(C(=O)O)CCC[C@@H]1[18F] (single isomer, unassigned; enantiomer 1) [Enantiomer 1, anti-2-[^18F]FACPC]
in vivo uptake compared with enantiomer 2 [1, 3]: greater uptake than enantiomer 2 | in vivo uptake compared with racemic 2-[^18F]FACBC [1, 3]: significantly higher in vivo uptake than racemic 2-[^18F]FACBC | tissue distribution, blood [1, 4]: 3.98 percent dose/gram | tissue distribution, bone [1, 4]: 3.08 percent dose/gram | tissue distribution, brain [1, 4]: 0.81 percent dose/gram | tissue distribution, heart [1, 4]: 3.78 percent dose/gram | tissue distribution, kidney [1, 4]: 8.0 percent dose/gram | tissue distribution, liver [1, 4]: 4.01 percent dose/gram | tissue distribution, lung [1, 4]: 4.09 percent dose/gram | tissue distribution, muscle [1, 4]: 2.47 percent dose/gram | tissue distribution, pancreas [1, 4]: 57.83 percent dose/gram | tissue distribution, spleen [1, 4]: 12.52 percent dose/gram | tissue distribution, tumor [1, 4]: 9.77 percent dose/gram | tissue distribution, blood [1, 5]: 1.59 percent dose/gram | tissue distribution, bone [1, 5]: 2.43 percent dose/gram | tissue distribution, brain [1, 5]: 0.81 percent dose/gram | tissue distribution, heart [1, 5]: 2.49 percent dose/gram | tissue distribution, kidney [1, 5]: 4.02 percent dose/gram | tissue distribution, liver [1, 5]: 2.16 percent dose/gram | tissue distribution, lung [1, 5]: 2.07 percent dose/gram | tissue distribution, muscle [1, 5]: 2.43 percent dose/gram | tissue distribution, pancreas [1, 5]: 27.09 percent dose/gram | tissue distribution, spleen [1, 5]: 4.13 percent dose/gram | tissue distribution, tumor [1, 5]: 7.16 percent dose/gram | in vivo uptake compared with racemic 2-[^18F]FACBC ([2]; DU 145 cells implanted subcutaneously in flanks of SCID mice): significantly higher in vivo uptake than racemic 2-[^18F]FACBC | tissue distribution, blood ([2]; 15 min): 3.69 percent dose/gram | tissue distribution, bone ([2]; 15 min): 2.89 percent dose/gram | tissue distribution, brain ([2]; 15 min): 0.70 percent dose/gram | tissue distribution, heart ([2]; 15 min): 3.76 percent dose/gram | tissue distribution, kidney ([2]; 15 min): 8.83 percent dose/gram | tissue distribution, liver ([2]; 15 min): 4.34 percent dose/gram | tissue distribution, lung ([2]; 15 min): 4.38 percent dose/gram | tissue distribution, muscle ([2]; 15 min): 2.23 percent dose/gram | tissue distribution, pancreas ([2]; 15 min): 47 percent dose/gram | tissue distribution, spleen ([2]; 15 min): 7.4 percent dose/gram | tissue distribution, tumor ([2]; 15 min): 3.82 percent dose/gram | tissue distribution, blood ([2]; 30 min): 2.44 percent dose/gram | tissue distribution, bone ([2]; 30 min): 3.06 percent dose/gram | tissue distribution, brain ([2]; 30 min): 0.49 percent dose/gram | tissue distribution, heart ([2]; 30 min): 2.71 percent dose/gram | tissue distribution, kidney ([2]; 30 min): 5.36 percent dose/gram | tissue distribution, liver ([2]; 30 min): 2.74 percent dose/gram | tissue distribution, lung ([2]; 30 min): 2.78 percent dose/gram | tissue distribution, muscle ([2]; 30 min): 2.31 percent dose/gram | tissue distribution, pancreas ([2]; 30 min): 28 percent dose/gram | tissue distribution, spleen ([2]; 30 min): 6.70 percent dose/gram | tissue distribution, tumor ([2]; 30 min): 3.54 percent dose/gram | tissue distribution, blood ([2]; 60 min): 1.7 percent dose/gram | tissue distribution, bone ([2]; 60 min): 2.58 percent dose/gram | tissue distribution, brain ([2]; 60 min): 0.62 percent dose/gram | tissue distribution, heart ([2]; 60 min): 2.2 percent dose/gram | tissue distribution, kidney ([2]; 60 min): 4.07 percent dose/gram | tissue distribution, liver ([2]; 60 min): 1.96 percent dose/gram | tissue distribution, lung ([2]; 60 min): 1.91 percent dose/gram | tissue distribution, muscle ([2]; 60 min): 2.15 percent dose/gram | tissue distribution, pancreas ([2]; 60 min): 22 percent dose/gram | tissue distribution, spleen ([2]; 60 min): 2.79 percent dose/gram | tissue distribution, tumor ([2]; 60 min): 3.07 percent dose/gram

Reference: US20130123618A1, “Imaging Agents” (priority 2008, published 2013)
